“And” between values parts separate entries of the source, which are not always exact repeats. Equal values may be shown once. Toxic doses and inconclusive results are not listed.
Test system: L1210 leukemia ip in BDF1 mice, survival T/C
Assay: NCI In Vivo Anticancer Drug Screen. Data for tumor model L1210 Leukemia (intraperitoneal) in B6D2F1 (BDF1) mice
Settings: endpoint: mean survival time, higher = longer survival
Outline: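 Mice bearing the transplanted tumor received compound or vehicle. Survival of the treated group was divided by that of the vehicle-treated control group to give the ratio.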

Nc1nc(=S)c2ncn(C3OC(CO)C(O)C3O)c2[nH]1 (centres undefined)
T/C (dose: 0.09 mg/kg/injection, schedule: Q01DX Z (ip), vehicle: carboxymethylcellulose (CMC)): 109 % of control | T/C (dose: 0.18 mg/kg/injection, schedule: Q01DX Z (ip), vehicle: carboxymethylcellulose (CMC)): 124 % of control | T/C (dose: 0.25 mg/kg/injection, schedule: Q01DX015 (ip), vehicle: carboxymethylcellulose (CMC)): 111 % of control and 115 % of control | T/C (dose: 0.25 mg/kg/injection, schedule: Q01DX015 (ip), vehicle: other): 110 % of control | T/C (dose: 0.37 mg/kg/injection, schedule: Q01DX Z (ip), vehicle: carboxymethylcellulose (CMC)): 121 % of control | T/C (dose: 0.4 mg/kg/injection, schedule: Q01DX009 (sc), vehicle: carboxymethylcellulose (CMC)): 98 % of control | T/C (dose: 0.44 mg/kg/injection, schedule: Q01DX015 (ip), vehicle: carboxymethylcellulose (CMC)): 113 % of control | T/C (dose: 0.5 mg/kg/injection, schedule: Q01DX015 (ip), vehicle: carboxymethylcellulose (CMC)): 123 % of control | T/C (dose: 0.5 mg/kg/injection, schedule: Q01DX015 (ip), vehicle: other): 123 % of control | T/C (dose: 0.5 mg/kg/injection, schedule: Q01DX Z (ip), vehicle: carboxymethylcellulose (CMC)): 151 % of control | T/C (dose: 0.62 mg/kg/injection, schedule: Q01DX015 (oral), vehicle: carboxymethylcellulose (CMC)): 112 % of control | T/C (dose: 0.67 mg/kg/injection, schedule: Q01DX015 (ip), vehicle: carboxymethylcellulose (CMC)): 113 % of control | T/C (dose: 0.8 mg/kg/injection, schedule: Q01DX009 (oral), vehicle: carboxymethylcellulose (CMC)): 105 % of control | T/C (dose: 0.8 mg/kg/injection, schedule: Q01DX009 (sc), vehicle: carboxymethylcellulose (CMC)): 102 % of control | T/C (dose: 1.0 mg/kg/injection, schedule: Q01DX015 (ip), vehicle: other): 124 % of control | T/C (dose: 1.0 mg/kg/injection, schedule: Q01DX Z (ip), vehicle: carboxymethylcellulose (CMC)): 157 % of control | T/C (dose: 1.25 mg/kg/injection, schedule: Q01DX015 (oral), vehicle: carboxymethylcellulose (CMC)): 124 % of control | T/C (dose: 1.56 mg/kg/injection, schedule: Q01DX009 (ip), vehicle: saline): 152 % of control and 158 % of control | T/C (dose: 1.8 mg/kg/injection, schedule: Q## X032 (ip), vehicle: carboxymethylcellulose (CMC)): 120 % of control | T/C (dose: 2.16 mg/kg/injection, schedule: Q01DX Z (ip), vehicle: carboxymethylcellulose (CMC)): 152 % of control | T/C (dose: 2.16 mg/kg/injection, schedule: Q01DX Z (oral), vehicle: carboxymethylcellulose (CMC)): 114 % of control | T/C (dose: 2.7 mg/kg/injection, schedule: Q02DX008 (ip), vehicle: carboxymethylcellulose (CMC)): 152 % of control | T/C (dose: 3.0 mg/kg/injection, schedule: Q01DX009 (ip), vehicle: saline): 104 % of control | T/C (dose: 3.0 mg/kg/injection, schedule: Q01DX Z (ip), vehicle: carboxymethylcellulose (CMC)): 152 % of control | T/C (dose: 4.0 mg/kg/injection, schedule: Q01DX015 (ip), vehicle: carboxymethylcellulose (CMC)): 120 % of control | T/C (dose: 4.0 mg/kg/injection, schedule: Q01DX Z (ip), vehicle: carboxymethylcellulose (CMC)): 108 % of control | T/C (dose: 4.0 mg/kg/injection, schedule: Q02DX008 (ip), vehicle: carboxymethylcellulose (CMC)): 153 % of control | T/C (dose: 4.2 mg/kg/injection, schedule: Q## X032 (ip), vehicle: carboxymethylcellulose (CMC)): 123 % of control | T/C (dose: 4.6 mg/kg/injection, schedule: Q01DX009 (ip), vehicle: saline): 89 % of control | T/C (dose: 5.5 mg/kg/injection, schedule: Q## X003 (ip), vehicle: carboxymethylcellulose (CMC)): 156 % of control | T/C (dose: 5.8 mg/kg/injection, schedule: Q02DX008 (ip), vehicle: carboxymethylcellulose (CMC)): 156 % of control | T/C (dose: 6.0 mg/kg/injection, schedule: Q01DX Z (ip), vehicle: carboxymethylcellulose (CMC)): 122 % of control | T/C (dose: 6.0 mg/kg/injection, schedule: Q01DX Z (oral), vehicle: carboxymethylcellulose (CMC)): 150 % of control | T/C (dose: 6.25 mg/kg/injection, schedule: Q01DX009 (ip), vehicle: saline): 118 % of control | T/C (dose: 6.4 mg/kg/injection, schedule: Q## X032 (ip), vehicle: carboxymethylcellulose (CMC)): 154 % of control | T/C (dose: 7.0 mg/kg/injection, schedule: Q01DX Z (ip), vehicle: carboxymethylcellulose (CMC)): 116 % of control | T/C (dose: 8.0 mg/kg/injection, schedule: Q01DX Z (ip), vehicle: carboxymethylcellulose (CMC)): 110 % of control | T/C (dose: 8.8 mg/kg/injection, schedule: Q02DX008 (ip), vehicle: carboxymethylcellulose (CMC)): 150 % of control | T/C (dose: 9.0 mg/kg/injection, schedule: Q01DX Z (ip), vehicle: saline): 105 % of control and 108 % of control | T/C (dose: 10.0 mg/kg/injection, schedule: Q01DX Z (oral), vehicle: carboxymethylcellulose (CMC)): 119 % of control | T/C (dose: 10.0 mg/kg/injection, schedule: Q## X004 (ip), vehicle: carboxymethylcellulose (CMC)): 158 % of control | T/C (dose: 12.5 mg/kg/injection, schedule: Q01DX009 (ip), vehicle: saline): 108 % of control and 123 % of control | T/C (dose: 13.0 mg/kg/injection, schedule: Q01DX Z (ip), vehicle: saline): 108 % of control | T/C (dose: 13.0 mg/kg/injection, schedule: Q02DX008 (ip), vehicle: carboxymethylcellulose (CMC)): 119 % of control | T/C (dose: 14.0 mg/kg/injection, schedule: Q## X032 (ip), vehicle: carboxymethylcellulose (CMC)): 155 % of control | T/C (dose: 16.0 mg/kg/injection, schedule: Q01DX009 (ip), vehicle: saline): 104 % of control | T/C (dose: 16.8 mg/kg/injection, schedule: Q01DX Z (oral), vehicle: carboxymethylcellulose (CMC)): 108 % of control | T/C (dose: 18.8 mg/kg/injection, schedule: Q01DX009 (ip), vehicle: saline): 119 % of control | T/C (dose: 18.8 mg/kg/injection, schedule: Q01DX Z (ip), vehicle: saline): 103 % of control | T/C (dose: 20.0 mg/kg/injection, schedule: Q01DX Z (ip), vehicle: saline): 109 % of control | T/C (dose: 20.0 mg/kg/injection, schedule: Q01DX Z (oral), vehicle: carboxymethylcellulose (CMC)): 122 % of control | T/C (dose: 22.0 mg/kg/injection, schedule: Q## X032 (ip), vehicle: carboxymethylcellulose (CMC)): 155 % of control | T/C (dose: 22.5 mg/kg/injection, schedule: Q01DX001 (oral), vehicle: carboxymethylcellulose (CMC)): 154 % of control | T/C (dose: 25.0 mg/kg/injection, schedule: Q01DX005 (ip), vehicle: saline): 94 % of control and 111 % of control and 117 % of control | T/C (dose: 25.0 mg/kg/injection, schedule: Q01DX009 (ip), vehicle: saline): 100 % of control and 120 % of control and 94 % of control | T/C (dose: 30.0 mg/kg/injection, schedule: Q01DX Z (ip), vehicle: saline): 93 % of control | T/C (dose: 32.0 mg/kg/injection, schedule: Q## X032 (ip), vehicle: carboxymethylcellulose (CMC)): 119 % of control | T/C (dose: 36.0 mg/kg/injection, schedule: Q## X016 (ip), vehicle: carboxymethylcellulose (CMC)): 122 % of control | T/C (dose: 37.5 mg/kg/injection, schedule: Q01DX009 (ip), vehicle: saline): 108 % of control | T/C (dose: 37.5 mg/kg/injection, schedule: Q01DX010 (ip), vehicle: saline): 97 % of control | T/C (dose: 40.0 mg/kg/injection, schedule: Q01DX Z (oral), vehicle: carboxymethylcellulose (CMC)): 101 % of control | T/C (dose: 45.0 mg/kg/injection, schedule: Q01DX001 (ip), vehicle: carboxymethylcellulose (CMC)): 155 % of control | T/C (dose: 45.0 mg/kg/injection, schedule: Q02DX008 (ip), vehicle: carboxymethylcellulose (CMC)): 157 % of control | T/C (dose: 50.0 mg/kg/injection, schedule: Q01DX001 (ip), vehicle: saline): 96 % of control | T/C (dose: 50.0 mg/kg/injection, schedule: Q01DX005 (ip), vehicle: saline): 111 % of control | T/C (dose: 67.0 mg/kg/injection, schedule: Q## X004 (ip), vehicle: carboxymethylcellulose (CMC)): 151 % of control | T/C (dose: 75.0 mg/kg/injection, schedule: Q01DX009 (ip), vehicle: saline): 96 % of control | T/C (dose: 90.0 mg/kg/injection, schedule: Q01DX001 (sc), vehicle: carboxymethylcellulose (CMC)): 156 % of control | T/C (dose: 100.0 mg/kg/injection, schedule: Q01DX001 (ip), vehicle: carboxymethylcellulose (CMC)): 155 % of control | T/C (dose: 100.0 mg/kg/injection, schedule: Q01DX001 (ip), vehicle: saline): 102 % of control | T/C (dose: 100.0 mg/kg/injection, schedule: Q01DX009 (ip), vehicle: saline): 104 % of control | T/C (dose: 144.0 mg/kg/injection, schedule: Q01DX001 (ip), vehicle: carboxymethylcellulose (CMC)): 158 % of control | T/C (dose: 150.0 mg/kg/injection, schedule: Q01DX001 (ip), vehicle: carboxymethylcellulose (CMC)): 157 % of control | T/C (dose: 180.0 mg/kg/injection, schedule: Q01DX001 (ip), vehicle: carboxymethylcellulose (CMC)): 154 % of control | T/C (dose: 180.0 mg/kg/injection, schedule: Q## X002 (ip), vehicle: carboxymethylcellulose (CMC)): 109 % of control | T/C (dose: 200.0 mg/kg/injection, schedule: Q01DX001 (ip), vehicle: saline): 98 % of control | T/C (dose: 200.0 mg/kg/injection, schedule: Q01DX005 (ip), vehicle: saline): 120 % of control and 106 % of control | T/C (dose: 200.0 mg/kg/injection, schedule: Q01DX009 (ip), vehicle: saline): 105 % of control | T/C (dose: 225.0 mg/kg/injection, schedule: Q01DX001 (ip), vehicle: carboxymethylcellulose (CMC)): 150 % of control | T/C (dose: 225.0 mg/kg/injection, schedule: Q## X004 (ip), vehicle: carboxymethylcellulose (CMC)): 119 % of control | T/C (dose: 270.0 mg/kg/injection, schedule: Q01DX001 (ip), vehicle: carboxymethylcellulose (CMC)): 124 % of control | T/C (dose: 360.0 mg/kg/injection, schedule: Q01DX001 (sc), vehicle: carboxymethylcellulose (CMC)): 95 % of control | T/C (dose: 360.0 mg/kg/injection, schedule: Q## X003 (oral), vehicle: carboxymethylcellulose (CMC)): 110 % of control | T/C (dose: 400.0 mg/kg/injection, schedule: Q01DX001 (ip), vehicle: carboxymethylcellulose (CMC)): 103 % of control | T/C (dose: 400.0 mg/kg/injection, schedule: Q01DX009 (ip), vehicle: saline): 94 % of control | T/C (dose: 720.0 mg/kg/injection, schedule: Q01DX001 (oral), vehicle: carboxymethylcellulose (CMC)): 109 % of control | T/C (dose: 84.0 micrograms/kg/injection, schedule: Q01DX Z (ip), vehicle: saline): 121 % of control | T/C (dose: 120.0 micrograms/kg/injection, schedule: Q01DX Z (ip), vehicle: saline): 115 % of control | T/C (dose: 290.0 micrograms/kg/injection, schedule: Q01DX Z (ip), vehicle: saline): 151 % of control

From PubChem BioAssay AID248 (DTP/NCI, 2004)
